Assay results as given in ChEMBL document CHEMBL4308834, “Novel Allosteric Activators for Ferroptosis Regulator Glutathione Peroxidase 4” (J Med Chem, 2018).
The source made the active and inactive calls. The rule behind the calls is not given here.

Assays:
[1] = target: Phospholipid hydroperoxide glutathione peroxidase GPX4 (Mus musculus) (UniProt O70325); test: Activation of GPX4 in MEF assessed as increase in oxidized glutathione-mediated oxidation of NADPH to NADP+ using tert-butyl hydroperoxide as substrate preincubated for 5 mins followed by substrate addition measured for 6 mins by glutathione reductase enzyme coupled fluorescence assay; assay type: cell-based
Phospholipid hydroperoxide glutathione peroxidase GPX4 (Mus musculus), sequence (O70325 whole entry): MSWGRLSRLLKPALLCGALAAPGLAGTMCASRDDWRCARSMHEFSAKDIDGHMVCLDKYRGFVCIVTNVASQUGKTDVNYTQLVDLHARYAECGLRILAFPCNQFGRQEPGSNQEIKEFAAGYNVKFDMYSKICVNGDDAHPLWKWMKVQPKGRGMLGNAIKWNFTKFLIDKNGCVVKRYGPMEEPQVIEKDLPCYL

[2] = target: T1, Polyunsaturated fatty acid lipoxygenase ALOX15 (Homo sapiens) (UniProt P16050); test: Inhibition of 15-LOX (unknown origin) at 500 uM preincubated for 1 mins followed by arachidonic acid substrate addition by spectrophotometric method
T1 sequence (whole entry): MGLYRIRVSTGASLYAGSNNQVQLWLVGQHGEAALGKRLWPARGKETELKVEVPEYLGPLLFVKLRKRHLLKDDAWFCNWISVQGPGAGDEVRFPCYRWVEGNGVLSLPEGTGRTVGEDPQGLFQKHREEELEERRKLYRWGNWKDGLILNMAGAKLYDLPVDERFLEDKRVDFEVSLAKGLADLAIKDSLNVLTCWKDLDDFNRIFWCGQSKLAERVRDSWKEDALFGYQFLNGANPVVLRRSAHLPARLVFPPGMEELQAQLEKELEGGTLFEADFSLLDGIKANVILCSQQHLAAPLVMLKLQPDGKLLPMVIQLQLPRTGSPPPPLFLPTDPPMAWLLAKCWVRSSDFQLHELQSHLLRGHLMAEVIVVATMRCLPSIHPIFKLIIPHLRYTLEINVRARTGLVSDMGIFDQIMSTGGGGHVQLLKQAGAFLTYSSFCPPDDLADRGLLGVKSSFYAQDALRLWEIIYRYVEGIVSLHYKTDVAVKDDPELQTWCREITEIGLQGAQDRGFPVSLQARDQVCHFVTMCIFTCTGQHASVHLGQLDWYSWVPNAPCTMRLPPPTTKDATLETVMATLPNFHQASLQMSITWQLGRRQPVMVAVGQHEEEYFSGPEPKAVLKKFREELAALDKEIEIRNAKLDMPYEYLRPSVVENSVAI

[3] = target: T2, Leukotriene A-4 hydrolase (Homo sapiens) (UniProt P09960); test: Inhibition of LTA4H (unknown origin) at 500 uM preincubated for 15 mins followed by LTA4 substrate addition and measured after 10 mins by ELISA relative to control
T2 sequence (whole entry): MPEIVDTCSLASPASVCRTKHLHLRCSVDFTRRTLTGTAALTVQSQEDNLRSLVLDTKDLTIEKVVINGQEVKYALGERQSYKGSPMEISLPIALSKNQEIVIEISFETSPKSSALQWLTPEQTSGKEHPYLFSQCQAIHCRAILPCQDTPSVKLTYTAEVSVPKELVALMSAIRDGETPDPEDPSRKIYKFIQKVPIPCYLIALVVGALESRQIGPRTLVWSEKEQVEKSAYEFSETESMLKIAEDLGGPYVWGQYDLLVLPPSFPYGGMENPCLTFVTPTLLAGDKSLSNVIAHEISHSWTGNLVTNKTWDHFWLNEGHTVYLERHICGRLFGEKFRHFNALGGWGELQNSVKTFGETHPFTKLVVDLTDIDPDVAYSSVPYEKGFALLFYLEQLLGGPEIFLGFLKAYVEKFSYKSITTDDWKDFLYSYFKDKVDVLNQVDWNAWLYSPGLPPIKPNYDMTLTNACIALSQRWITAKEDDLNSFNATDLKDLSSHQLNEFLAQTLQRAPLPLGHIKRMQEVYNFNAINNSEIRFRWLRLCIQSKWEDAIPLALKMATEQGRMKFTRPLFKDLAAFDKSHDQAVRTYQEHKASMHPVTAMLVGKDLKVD

[4] = Antioxidant activity assessed as DPPH radical scavenging activity at 500 uM; assay type: functional
[5] = target: T3, Phospholipid hydroperoxide glutathione peroxidase GPX4 (Homo sapiens) (UniProt P36969); test: Activation of GPX4 in A23187-stimulated human PMN leukocytes assessed as increase in 12-HETE preincubated for 15 mins followed by A23187 addition and measured after 120 mins by LC-MS analysis
T3 sequence (whole entry): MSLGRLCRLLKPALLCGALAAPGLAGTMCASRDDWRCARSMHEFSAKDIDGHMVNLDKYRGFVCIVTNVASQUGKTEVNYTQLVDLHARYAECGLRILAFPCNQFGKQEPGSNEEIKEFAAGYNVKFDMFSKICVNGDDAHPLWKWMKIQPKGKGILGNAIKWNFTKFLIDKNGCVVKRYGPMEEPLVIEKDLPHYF

[6] = target: T4, Prostaglandin E synthase (Homo sapiens) (UniProt O14684); test: Inhibition of mPGES1 (unknown origin) at 500 uM preincubated for 15 mins followed by PGH2 substrate addition and measured after 1 min by EIA relative to control
T4 sequence (whole entry): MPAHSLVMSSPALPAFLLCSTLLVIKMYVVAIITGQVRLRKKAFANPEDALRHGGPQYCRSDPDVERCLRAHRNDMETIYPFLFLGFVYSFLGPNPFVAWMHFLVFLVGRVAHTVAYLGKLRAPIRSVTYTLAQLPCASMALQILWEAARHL

[7] = target: T3, Phospholipid hydroperoxide glutathione peroxidase GPX4 (Homo sapiens); test: Activation of GPX4 in human HT1080 cells assessed as inhibition of erastin-induced ferroptosis at 125 uM preincubated for 30 mins followed by erastin addition measured after 24 hrs by MTS assay; assay type: cell-based
[8] = target: T5, Polyunsaturated fatty acid lipoxygenase ALOX12 (Homo sapiens) (UniProt P18054); test: Inhibition of 12-LOX (unknown origin) at 500 uM preincubated for 1 mins followed by arachidonic acid substrate addition by spectrophotometric method
T5 sequence (whole entry): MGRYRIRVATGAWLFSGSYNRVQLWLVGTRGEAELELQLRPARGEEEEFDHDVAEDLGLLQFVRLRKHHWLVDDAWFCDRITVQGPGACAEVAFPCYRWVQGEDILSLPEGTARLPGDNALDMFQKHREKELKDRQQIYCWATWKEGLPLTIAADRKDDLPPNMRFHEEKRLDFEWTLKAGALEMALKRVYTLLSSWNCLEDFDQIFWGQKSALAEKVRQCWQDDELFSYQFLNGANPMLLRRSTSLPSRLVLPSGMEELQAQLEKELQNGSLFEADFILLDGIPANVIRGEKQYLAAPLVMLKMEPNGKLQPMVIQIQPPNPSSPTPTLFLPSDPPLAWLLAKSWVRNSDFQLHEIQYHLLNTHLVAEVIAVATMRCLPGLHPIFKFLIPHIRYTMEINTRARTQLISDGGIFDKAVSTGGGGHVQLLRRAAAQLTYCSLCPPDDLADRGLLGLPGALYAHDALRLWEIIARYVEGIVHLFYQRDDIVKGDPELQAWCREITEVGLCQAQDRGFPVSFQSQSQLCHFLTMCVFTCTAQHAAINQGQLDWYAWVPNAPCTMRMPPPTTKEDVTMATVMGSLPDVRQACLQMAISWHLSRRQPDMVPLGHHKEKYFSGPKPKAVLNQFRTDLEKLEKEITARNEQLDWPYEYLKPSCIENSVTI

[9] = organism: Homo sapiens; test: Activation of recombinant His-tagged human cytosolic GPX4 U46C mutant expressed in Escherichia coli M15 assessed as increase in oxidized glutathione-mediated oxidation of NADPH to NADP+ at 200 uM using tert-butyl hydroperoxide as substrate preincubated for 5 mins followed by substrate addition measured for 6 mins by glutathione reductase enzyme coupled fluorescence assay relative to control

Activity [1]: Dose-dependent effect
inhibition [2]: inactive
inhibition [3]: 17%
Activity [5]: Dose-dependent effect
inhibition [6]: 23%
inhibition [7]: Active
inhibition [8]: inactive
Activity [9]: 127%
SMILES: NS(=O)(=O)c1ccc(NC(S)=NCc2ccc(Cl)cc2)cc1
Activity [4]: inactive
